Reference: US20210300924A1, “5-[6-[[3-(4,5,6,7-TETRAHYDROPYRAZOLO[4,3-C]PYRIDIN-1-YL)AZETIDIN-1-YL]METHYL]MORPHOLIN-4-YL]QUINOLINE-8-CARBONITRILE DERIVATIVES AND SIMILAR COMPOUNDS AS TLR7-9 ANTAGONISTS FOR TREATING SYSTEMIC LUPUS ERYTHEMATOSUS” (Hoffmann-La Roche Inc., priority 2018, published 2021)

Molecular target: T1, hERG channel (Homo sapiens, UniProt Q12809)
T1 construct: expressed in transfected cells; host or cells: CHO (Chinese hamster ovary), CHOhERG
Experiment: hERG channel inhibition assay (patch-clamp, CHOhERG cells)
Format: cell-based
Conditions: for IC50 / IC20: CHOhERG cells, whole-cell patch-clamp; for IC20: human, CHO cells stably expressing hERG (CHOhERG cells); for hERG IC20/TLR7 IC50 / hERG IC20/TLR8 IC50 / hERG IC20/TLR9 IC50: safety ratio, >30 suggests sufficient window
Procedure: hERG Channel Inhibition Assay:
The hERG K^+ channels were cloned in humans and stably expressed in a CHO (Chinese hamster ovary) cell line. CHOhERG cells were used for patch-clamp (voltage-clamp, whole-cell) experiments. Cells were stimulated by a voltage pattern to activate hERG channels and conduct hERG currents (rapid delayed outward rectifier potassium current of the hERG channel). After the cells were stabilized for a few minutes, the amplitude and kinetics of IKhERG were recorded at a stimulation frequency of 0.1 Hz (6 bpm). Thereafter, the test compound was added to the preparation at increasing concentrations. For each concentration, an attempt was made to reach a steady-state effect, usually, this was achieved within 3-10 min at which time the next highest concentration was applied. The amplitude and kinetics of IKhERG are recorded in each concentration of the drug which were compared to the control values (taken as 100%). (references: Redfern W S, Carlsson L, Davis A S, Lynch W G, MacKenzie I, Palethorpe S, Siegl P K, Strang I, Sullivan A T, Wallis R, Camm A J, Hammond T G. 2003; Relationships between preclinical cardiac electrophysiology, clinical QT interval prolongation and torsade de pointes for a broad range of drugs: evidence for a provisional safety margin in drug development. Cardiovasc. Res. 58:32-45, Sanguinetti MC, Tristani-Firouzi M. 2006; hERG potassium channels and cardiac arrhythmia. Nature 440:463-469, Webster R, Leishman D, Walker D. 2002; Towards a drug concentration effect relationship for QT prolongation and torsades de pointes. Curr. Opin. Drug Discov. Devel. 5:116-26).

T1 sequence (Q12809 whole entry): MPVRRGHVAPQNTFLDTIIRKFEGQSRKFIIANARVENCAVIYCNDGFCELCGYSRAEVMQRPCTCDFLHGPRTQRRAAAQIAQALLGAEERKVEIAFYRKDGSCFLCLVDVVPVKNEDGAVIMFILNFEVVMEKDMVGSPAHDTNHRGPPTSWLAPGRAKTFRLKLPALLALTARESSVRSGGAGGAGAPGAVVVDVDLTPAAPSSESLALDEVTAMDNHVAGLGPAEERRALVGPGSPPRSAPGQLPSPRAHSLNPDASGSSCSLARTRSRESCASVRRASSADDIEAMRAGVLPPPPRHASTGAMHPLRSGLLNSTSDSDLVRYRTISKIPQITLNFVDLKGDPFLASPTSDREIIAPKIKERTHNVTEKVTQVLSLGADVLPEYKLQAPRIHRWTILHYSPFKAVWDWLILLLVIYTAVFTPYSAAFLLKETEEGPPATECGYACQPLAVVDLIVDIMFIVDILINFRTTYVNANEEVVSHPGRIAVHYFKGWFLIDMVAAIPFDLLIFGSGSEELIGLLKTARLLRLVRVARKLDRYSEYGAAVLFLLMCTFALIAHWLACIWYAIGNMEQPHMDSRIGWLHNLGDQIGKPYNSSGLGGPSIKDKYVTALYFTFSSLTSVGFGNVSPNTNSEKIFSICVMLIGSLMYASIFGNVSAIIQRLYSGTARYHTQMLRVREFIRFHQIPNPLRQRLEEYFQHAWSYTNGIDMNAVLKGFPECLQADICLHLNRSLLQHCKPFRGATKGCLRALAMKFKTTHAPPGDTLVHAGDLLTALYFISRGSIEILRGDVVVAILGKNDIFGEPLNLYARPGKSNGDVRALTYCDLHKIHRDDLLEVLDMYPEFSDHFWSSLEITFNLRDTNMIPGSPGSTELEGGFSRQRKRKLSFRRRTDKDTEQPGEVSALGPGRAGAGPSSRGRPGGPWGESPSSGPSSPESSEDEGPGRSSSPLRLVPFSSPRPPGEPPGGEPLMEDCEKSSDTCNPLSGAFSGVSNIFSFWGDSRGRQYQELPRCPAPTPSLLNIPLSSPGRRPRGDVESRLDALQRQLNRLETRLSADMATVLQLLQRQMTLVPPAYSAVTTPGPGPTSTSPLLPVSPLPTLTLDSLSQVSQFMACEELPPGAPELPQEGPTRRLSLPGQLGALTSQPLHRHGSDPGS

SMILES: C[C@@H]1CN(c2ccc(C#N)c3ncccc23)C[C@H](CN2CC(n3cc4c(n3)CNCC4)C2)O1 [Example 4, 5-[(2R,6S)-2-methyl-6-[[3-(4,5,6,7-tetrahydropyrazolo[3,4-c]pyridin-2-yl)azetidin-1-yl]methyl]morpholin-4-yl]quinoline-8-carbonitrile]
- IC50: > 20 µM
- IC20: > 10 µM
- hERG IC20/TLR7 IC50: >1136.4
- hERG IC20/TLR8 IC50: >1162.8
- hERG IC20/TLR9 IC50: >314.5

SMILES: C[C@@H]1CN(c2ccc(C#N)c3ncccc23)C[C@H](CN2CC(n3cc4c(n3)CN[C@@H](C)C4)C2)O1 (single isomer, unassigned) [Example 29]
- IC50: > 20 µM
- IC20: > 10 µM
- hERG IC20/TLR7 IC50: >1265.8
- hERG IC20/TLR8 IC50: >877.2
- hERG IC20/TLR9 IC50: >138.3

SMILES: C[C@@H]1CN(c2ccc(C#N)c3ncccc23)C[C@H](CN2CCC(n3ncc4c3CCNC4)CC2)O1 [Example 35, 5-[(2R,6S)-2-methyl-6-[[4-(4,5,6,7-tetrahydropyrazolo[4,3-c]pyridin-1-yl)-1-piperidyl]methyl]morpholin-4-yl]quinoline-8-carbonitrile]
- IC50: > 20 µM
- IC20: > 10 µM
- hERG IC20/TLR7 IC50: >1924.5
- hERG IC20/TLR8 IC50: >397.8
- hERG IC20/TLR9 IC50: >121.4

SMILES: Cc1nn(C2CN(C[C@H]3CN(c4ccc(C#N)c5ncccc45)C[C@@H](C)O3)C2)c2c1CNCC2 [Example 12, 5-[(2R,6S)-2-methyl-6-[[3-(3-methyl-4,5,6,7-tetrahydropyrazolo[4,3-c]pyridin-1-yl)azetidin-1-yl]methyl]morpholin-4-yl]quinoline-8-carbonitrile]
- IC50: > 20 µM
- IC20: > 10 µM
- hERG IC20/TLR7 IC50: >666.7
- hERG IC20/TLR8 IC50: >226.8
- hERG IC20/TLR9 IC50: >127.6

SMILES: C[C@@H]1CN(c2ccc(C#N)c3ncccc23)C[C@H](CN2CC(n3cc4c(n3)CN(C)CC4)C2)O1 [Example 5, 5-[(2R,6S)-2-methyl-6-[[3-(6-methyl-5,7-dihydro-4H-pyrazolo[3,4-c]pyridin-2-yl)azetidin-1-yl]methyl]morpholin-4-yl]quinoline-8-carbonitrile]
- IC50: > 20 µM
- IC20: > 10 µM
- hERG IC20/TLR7 IC50: >2857.1
- hERG IC20/TLR8 IC50: >1653.6
- hERG IC20/TLR9 IC50: >73.1

SMILES: C[C@@H]1CN(c2ccc(C#N)c3ncccc23)C[C@H](CN2CC(n3cc4c(n3)[C@@H](C)NCC4)C2)O1 (single isomer, unassigned) [Example 33]
- IC50: > 20 µM
- IC20: > 10 µM
- hERG IC20/TLR7 IC50: >1369.9
- hERG IC20/TLR8 IC50: >763.4
- hERG IC20/TLR9 IC50: >291.5

SMILES: Cc1c2c(nn1C1CN(C[C@H]3CN(c4ccc(C#N)c5ncccc45)C[C@@H](C)O3)C1)CCNC2 [Example 13, 5-[(2R,6S)-2-methyl-6-[[3-(3-methyl-4,5,6,7-tetrahydropyrazolo[4,3-c]pyridin-2-yl)azetidin-1-yl]methyl]morpholin-4-yl]quinoline-8-carbonitrile]
- IC50: > 20 µM
- IC20: > 10 µM
- hERG IC20/TLR7 IC50: >694.4
- hERG IC20/TLR8 IC50: >222.2
- hERG IC20/TLR9 IC50: >84.5

SMILES: C[C@@H]1CN(c2ccc(C#N)c3ncccc23)C[C@H](CN2CC(n3cc4c(n3)CCNC4)C2)O1 [Example 2, 5-[(2R,6S)-2-methyl-6-[[3-(4,5,6,7-tetrahydropyrazolo[4,3-c]pyridin-2-yl)azetidin-1-yl]methyl]morpholin-4-yl]quinoline-8-carbonitrile]
- IC50: > 20 µM
- IC20: > 10 µM
- hERG IC20/TLR7 IC50: >403.5
- hERG IC20/TLR8 IC50: >538.4
- hERG IC20/TLR9 IC50: >151.6

SMILES: C[C@@H]1Cc2c(cnn2C2CN(C[C@H]3CN(c4ccc(C#N)c5ncccc45)C[C@@H](C)O3)C2)CN1 [Example 16, 5-[(2R,6S)-2-methyl-6-[[3-[(6R)-6-methyl-4,5,6,7-tetrahydropyrazolo[4,3-c]pyridin-1-yl]azetidin-1-yl]methyl]morpholin-4-yl]quinoline-8-carbonitrile]
- IC50: > 20 µM
- IC20: > 10 µM
- hERG IC20/TLR7 IC50: >2381.0
- hERG IC20/TLR8 IC50: >641.0
- hERG IC20/TLR9 IC50: >129.0

SMILES: C[C@@H]1CN(c2ccc(C#N)c3ncccc23)C[C@H](CN2CC(n3ncc4c3CNCC4)C2)O1 [Example 3, 5-[(2R,6S)-2-methyl-6-[[3-(4,5,6,7-tetrahydropyrazolo[3,4-c]pyridin-1-yl)azetidin-1-yl]methyl]morpholin-4-yl]quinoline-8-carbonitrile]
- IC50: > 20 µM
- IC20: > 10 µM
- hERG IC20/TLR7 IC50: >2901.3
- hERG IC20/TLR8 IC50: >1739.2
- hERG IC20/TLR9 IC50: >194.9

SMILES: C[C@@H]1Cc2cn(C3CN(C[C@H]4CN(c5ccc(C#N)c6ncccc56)C[C@@H](C)O4)C3)nc2CN1 (single isomer, unassigned) [Example 30]
- IC50: > 20 µM
- IC20: > 10 µM
- hERG IC20/TLR7 IC50: >2083.3
- hERG IC20/TLR8 IC50: >735.3
- hERG IC20/TLR9 IC50: >175.7

SMILES: C[C@@H]1CN(c2ccc(C#N)c3ncccc23)C[C@H](CN2CC(n3ncc4c3CCNC4)C2)O1 [Example 1, 5-[(2R,6S)-2-methyl-6-[[3-(4,5,6,7-tetrahydropyrazolo[4,3-c]pyridin-1-yl)azetidin-1-yl]methyl]morpholin-4-yl]quinoline-8-carbonitrile]
- IC50: > 20 µM
- IC20: > 10 µM
- hERG IC20/TLR7 IC50: >1023.8
- hERG IC20/TLR8 IC50: >584.4
- hERG IC20/TLR9 IC50: >174.0

SMILES: C[C@@H]1CN(c2ccc(C#N)c3ncccc23)C[C@H](CN2CC(n3cc4c(n3)CNC4)C2)O1 [Example 11, 5-[(2S,6R)-2-[[3-(5,6-dihydro-4H-pyrrolo[3,4-c]pyrazol-2-yl)azetidin-1-yl]methyl]-6-methyl-morpholin-4-yl]quinoline-8-carbonitrile]
- IC50: > 20 µM
- IC20: > 10 µM
- hERG IC20/TLR7 IC50: >602.4
- hERG IC20/TLR8 IC50: >531.9
- hERG IC20/TLR9 IC50: >204.5

SMILES: C[C@@H]1CN(c2ccc(C#N)c3ncccc23)C[C@H](CN2CCC(n3cc4c(n3)CCNC4)CC2)O1 [Example 36, 5-[(2R,6S)-2-methyl-6-[[4-(4,5,6,7-tetrahydropyrazolo[4,3-c]pyridin-2-yl)-1-piperidyl]methyl]morpholin-4-yl]quinoline-8-carbonitrile]
- IC50: > 20 µM
- IC20: 10 µM
- hERG IC20/TLR7 IC50: 566.6
- hERG IC20/TLR8 IC50: 246.7
- hERG IC20/TLR9 IC50: 180.7
